Tested on: Tregs and CD8+ T cells in PDAC tissue and spleen
Assay: Orthotopic KPC-derived PDAC mice: flow cytometry and IF of T cells in tumor and spleen
Type: in vivo, mouse
Protocol: The treatment studies in orthotopic syngeneic PDAC mice were performed as follows. Eight days after orthotopic implantation of 5.0×10^5 KPC-derived PDAC cells, the mice were randomized into respective treatment cohorts, such as intravenous (IV) phosphate buffered saline (PBS) alone, IV iRGD alone (300 μg/25 g), IV PBS+IP antimouse PD-L1 mAb (200 μg/mouse; clone MIH6; BioLegend™), IV iRGD+IP anti-mouse PD-L1 mAb, IV PBS+IV Gem (4 mg/kg; MilliporeSigma™), and IV iRGD+IV GEM+IP anti-mouse PD-L1 mAb. The treatment was given 3 times a week for 2 weeks starting 8 days after tumor cell implantation. The tumors and major organs were harvested at the end of the studies on day 22, weighed, and processed for flow cytometry, IF, and IHC. The treatment studies were terminated according to the guidelines by the IACUC at Columbia University. Treatment studies in transgenic KPC mice were performed as previously described.
Tumors from orthotopic PDAC mice were minced into 2-4 mm pieces and added with an enzyme mix from a tumor dissociation kit (Miltenyi Biotec™) in Roswell Park Memorial Institute medium 1640 (Cytiva™). The tissues were dissociated using a gentle MACS Dissociator (Miltenyi Biotec™) followed by a 40-minute incubation at 37° C. The samples were then centrifuged for 10 minutes at 3000×g in the presence of debris removal solution (Miltenyi Biotec™) and 10 minutes at 1000×g in cooled PBS. The supernatant was aspirated to remove the debris. Splenocytes were prepared by gently grinding the spleen and filtrating the resulting cell suspension through a 40 μm cell strainer. Red cells were lysed with an ACK lysing buffer (Thermo Fisher Scientific™
Immune cells isolated from the tumor or spleen, or cells cultured in vitro were tested for surface marker by staining with the following reagents for 20 minutes at 4° C.: Brilliant Violet 650™-conjugated anti-mouse CD3 Ab (clone 17A2; BioLegend), PerCP/Cyanine5.5-conjugated anti-mouse CD4 Ab (clone GK1.5; BioLegend™), PE/Cyanine7-conjugated antimouse CD8a Ab (clone 53-6.7; BioLegend™), PE-conjugated anti-mouse CD25 Ab (clone 7D4; Miltenyi Biotec™), PE/Cyanine7-conjugated anti-mouse CD25 Ab (clone PC61; BioLegend™), Brilliant Violet 421™ or 711™-conjugated anti-mouse CD304/NRP-1 Ab (clone 3E12; BioLegend™), Alexa Fluor® 647-conjugated anti-mouse integrin αvβ5 Ab (clone ALULA; BD Biosciences™), PE-conjugated anti-mouse CD198 (CCR8) Ab (clone SA214G2; BioLegend™), Zombie NIR™ (BioLegend™), or Aqua™ Fixable Viability Kit (BioLegend™). Intracellular staining of immune cells was performed using the following Abs and a Foxp3 staining buffer kit (eBioscience) according to the manufacturer's instructions: Brilliant Violet 421™-conjugated anti-Foxp3 Ab (FJK-16s; eBioscience™) Pacific Blue™-conjugated anti-mouse Foxp3 Ab (clone MF-14; BioLegend™), cleaved caspase-3 (Asp175) (5A1E) rabbit mAb (Cell Signaling™), and Alexa Flour™ 488-conjugated donkey anti-rabbit secondary Ab (Thermo Fisher Scientific™)
The Effect of iRGD Therapy on the Proportion of CD8+ T cells, Tregs, and Non-Treg CD4+ T Cells in the PDAC Tissue and the Spleen was tested. C57B6129SF1/J hybrid mice bearing orthotopic KPCderived PDAC tumors were treated with PBS or iRGD 3 times a week for 2 weeks. The tumors and spleen were collected 3, 7 and 14 days after the treatment was started. The proportion of CD8+ T cells, CD4+CD25+ T cells (Tregs), and CD4+CD25neg T cells (non-Tregs) in the tumors (FIG. 6A) and the spleen (FIG. 6B) were analyzed by flow cytometry (n=3 per arm).
In addition, C57B6129SF1/J hybrid mice bearing KPC-derived orthotopic PDAC tumors were intravenously treated with PBS or iRGD 3 times a week for 2 weeks. Tumors and spleen were collected at 3, 7 and 14 days after the treatment was started. […]

## CRGDKGPDC [iRGD]
CD4+CD25+ Tregs among CD4+ T cells, tumor, in 7 days, vs PBS
  proportion of Tregs in the PDAC tissue: significantly reduced the proportion of Tregs
Spleen of the PDAC mice
  CD8/Treg ratio in the spleen: did not affect
  proportion of CD8+ T cells in the spleen: did not affect
  proportion of Tregs in the spleen: did not affect
tumor, flow cytometry, vs PBS
  proportion of CD8+ T cells in the PDAC tissue: increased the proportion of CD8+ T cells
tumor, in 7 days, vs PBS
  CD8/Treg ratio in the PDAC tissue: significantly increased the CD8/Treg ratio

From patent US20260069694A1, “IDENTIFICATION OF HIGHLY IMMUNOSUPRESIVE TREG POPULATION IN TUMOR MICROENVIRONMENTS” (THE TRUSTEES OF COLUMBIA UNIVERSITY IN THE CITY OF NEW YORK, priority 2023, published 2026)
